# Source: patent US11420944B2, “Voltage-dependent t-type calcium channel blocker” (Nippon Chemiphar Co., Ltd., priority 2016, dated 2022)
# Target: T1, human Cav3.2 channels (Homo sapiens, UniProt O95180)
# T1 construct: expressed in transfected cells; host or cells: HEK293 cells (ATCC No. CRL-1573), plasmid pcDNA3.1(+)
# Assay: Intracellular calcium concentration measurement (Fluo-4 AM) in stable cells expressing human Cav3.2 channels, buffer A / buffer B
# Format: cell-based
# Settings: Tables 2 to 6; buffer A, equilibrium potential of potassium −92 mV; read-out: Inhibitory action of buffer A (inactivated state)
# From the text: Construction of Stable Cells Expressing Human Cav3.2 Channels
# (1) A sequence produced by incorporating HindIII site and kozak sequence (GCCACC) into the 5′-terminal side of human Cav3.2 channel ORF (Open Reading Frame) gene and incorporating Kpnl site into the 3′-terminal side was incorporated into pcDNA3.1(+) (Thermo-Fisher Scientific, Inc., #V790-20), and the plasmid was transfected into HEK293 cells (ATCC No. CRL-1573) according to the protocol of FuGENE (registered trademark) HD Transfection Reagent (PROMEGA #E2311).
# (2) Method for Measuring Intracellular Calcium Concentration
# In the present measurement system, buffer A and buffer B having different potassium ion concentrations were used in order to evaluate the state-dependent Cav3.2 inhibitory action of a test compound.
# Stable cell line expressing human Cav3.2 channels, which had been produced in (1), was seeded in a 96-well plate using DMEM medium including 10% FBS, and the cells were cultured for 48 hours under the conditions of 37° C. and 5% CO2. Subsequently, the medium was removed, and various wells that had been washed with a base buffer were treated with 80 μL of a fluorescent dye solution containing a mixed liquid of 22 μg of calcium fluorescence indicator Fluo-4 AM (Dojindo Laboratories Co., Ltd., #F311), 20 μL of DMSO, […] of 10% Pluronic F-127 (Thermo-Fisher Scientific, Inc., #P6866), and 4 mL of a base buffer. The cells were left to stand for 45 minutes at room temperature in the dark, and then the cells were washed with buffer A or buffer B. Solutions having various test compound concentrations and respectively containing buffer A or buffer B were added to the respective wells, the respective solutions containing DMSO at the same final concentration as that of the test compound as negative control, or containing the test compound dissolved in 100% DMSO at a final concentration of 0.1%. The cells were left to stand for another 15 minutes at room temperature in the dark, and the cells were analyzed using the following method using a microplate reader, EnVision (PerkinElmer, Inc.). First, the background fluorescence for each well was measured, subsequently an ionophore was added to the well, and the fluorescence of the baseline was measured. Subsequently, buffer A or buffer B containing added KCl at a concentration of 83.8 mM or 91.8 mM was added to each well, and an increase in fluorescence caused by a calcium influx generated by that stimulus was measured for 10 seconds. The percentage inhibition was calculated from the maximum fluorescence increment from the baseline, and the logarithmic value of the test compound concentration and the inhibitory activity were plotted to calculate the IC50 value. The analysis was carried out by measuring the fluorescence at 510 nm emitted when the cells were irradiated with exciting light at 485 nm.
# Base buffer: 140 mM NaCl, 5 mM KCl, 1 mM MgCl2, 0.5 mM CaCl2, 10 mM Glucose, and 10 mM HEPES, pH 7.3
# Buffer A: Equilibrium potential of potassium: −92 mV
# T1 sequence (O95180 whole entry): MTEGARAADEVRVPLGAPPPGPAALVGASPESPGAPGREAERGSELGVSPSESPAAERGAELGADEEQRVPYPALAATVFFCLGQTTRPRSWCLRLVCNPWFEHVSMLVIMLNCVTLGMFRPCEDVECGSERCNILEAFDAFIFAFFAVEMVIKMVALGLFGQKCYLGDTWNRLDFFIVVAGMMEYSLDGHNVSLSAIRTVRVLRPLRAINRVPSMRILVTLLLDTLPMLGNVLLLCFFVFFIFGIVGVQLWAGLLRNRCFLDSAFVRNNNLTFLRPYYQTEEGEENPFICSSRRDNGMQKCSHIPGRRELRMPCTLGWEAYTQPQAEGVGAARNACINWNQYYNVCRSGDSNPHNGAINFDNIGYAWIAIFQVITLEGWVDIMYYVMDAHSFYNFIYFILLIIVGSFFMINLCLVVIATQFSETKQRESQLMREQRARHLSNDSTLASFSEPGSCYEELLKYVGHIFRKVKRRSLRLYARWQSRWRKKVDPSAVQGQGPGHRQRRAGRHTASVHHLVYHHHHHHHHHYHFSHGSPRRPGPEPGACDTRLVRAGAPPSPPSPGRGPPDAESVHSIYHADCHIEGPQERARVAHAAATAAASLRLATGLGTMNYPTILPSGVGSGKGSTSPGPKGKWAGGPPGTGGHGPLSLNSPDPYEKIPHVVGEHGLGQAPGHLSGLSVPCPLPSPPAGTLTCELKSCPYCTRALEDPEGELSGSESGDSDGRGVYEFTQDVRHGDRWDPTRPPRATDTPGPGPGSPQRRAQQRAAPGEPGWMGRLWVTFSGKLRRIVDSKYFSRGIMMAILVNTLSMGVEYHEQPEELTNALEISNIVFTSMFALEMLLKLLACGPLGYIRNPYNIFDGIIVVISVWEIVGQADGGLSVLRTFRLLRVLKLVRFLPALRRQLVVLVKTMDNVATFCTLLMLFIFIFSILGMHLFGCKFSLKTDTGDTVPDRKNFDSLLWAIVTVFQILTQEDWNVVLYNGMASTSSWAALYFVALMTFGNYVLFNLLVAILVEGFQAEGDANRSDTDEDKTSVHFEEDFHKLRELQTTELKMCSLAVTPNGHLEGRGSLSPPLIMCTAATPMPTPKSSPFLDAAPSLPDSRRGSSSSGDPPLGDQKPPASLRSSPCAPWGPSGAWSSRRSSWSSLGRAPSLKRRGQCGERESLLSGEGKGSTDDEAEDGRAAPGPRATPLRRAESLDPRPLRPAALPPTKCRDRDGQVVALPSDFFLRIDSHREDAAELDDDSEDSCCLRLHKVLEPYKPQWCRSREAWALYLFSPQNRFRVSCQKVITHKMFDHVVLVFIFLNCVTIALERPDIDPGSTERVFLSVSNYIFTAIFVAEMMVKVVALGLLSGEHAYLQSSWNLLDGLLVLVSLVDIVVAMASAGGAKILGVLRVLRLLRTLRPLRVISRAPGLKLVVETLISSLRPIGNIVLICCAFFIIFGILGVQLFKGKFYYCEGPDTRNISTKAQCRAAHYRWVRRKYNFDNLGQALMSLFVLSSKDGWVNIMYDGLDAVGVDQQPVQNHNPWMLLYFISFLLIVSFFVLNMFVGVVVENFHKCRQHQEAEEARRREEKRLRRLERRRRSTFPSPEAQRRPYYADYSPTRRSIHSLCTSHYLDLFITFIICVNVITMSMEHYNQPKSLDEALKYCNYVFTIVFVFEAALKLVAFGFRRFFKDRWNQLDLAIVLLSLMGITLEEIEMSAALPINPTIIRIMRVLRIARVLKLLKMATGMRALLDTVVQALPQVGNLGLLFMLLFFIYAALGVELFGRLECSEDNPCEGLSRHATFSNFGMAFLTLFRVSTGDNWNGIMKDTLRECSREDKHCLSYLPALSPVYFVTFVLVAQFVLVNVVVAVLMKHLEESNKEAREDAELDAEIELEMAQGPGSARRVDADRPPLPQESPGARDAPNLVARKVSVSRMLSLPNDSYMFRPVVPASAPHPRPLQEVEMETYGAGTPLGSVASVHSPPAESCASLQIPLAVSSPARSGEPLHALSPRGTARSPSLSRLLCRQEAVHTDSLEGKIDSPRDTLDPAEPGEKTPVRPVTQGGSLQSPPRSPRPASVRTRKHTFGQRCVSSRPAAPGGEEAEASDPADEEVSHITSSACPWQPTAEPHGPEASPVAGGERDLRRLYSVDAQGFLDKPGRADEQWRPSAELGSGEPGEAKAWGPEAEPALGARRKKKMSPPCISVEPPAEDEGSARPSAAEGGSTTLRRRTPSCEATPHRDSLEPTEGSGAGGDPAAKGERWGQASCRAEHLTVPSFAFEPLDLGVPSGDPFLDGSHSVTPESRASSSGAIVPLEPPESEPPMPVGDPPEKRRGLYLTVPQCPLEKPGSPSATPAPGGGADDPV
row,Compound,IC50 [nM]
1,"O=C(N[C@@H](c1ccc(C(F)(F)F)s1)C1CCCCC1)[C@H]1C[C@@H]1c1nc2ccccc2[nH]1 [Example 59, (1S,2S)-2-(1H-benzo[d]imidazol-2-yl)-N—((R)-cyclohexyl(5-(trifluoromethyl)thiophen-2-yl)methyl)cyclopropane-1-carboxamide]",100 to 1000
2,"C[C@@H](NC(=O)[C@H]1C[C@@H]1c1nc2ccccc2[nH]1)c1ccc2c(c1)OCCO2 [Example 70, (1S,2S)-2-(1H-benzo[d]imidazol-2-yl)-N—((R)-1-(2,3-dihydrobenzo[b][1,4]dioxin-6-yl)ethyl)cyclopropane-1-carboxamide]",1000 to 10000
3,"C[C@@H](NC(=O)[C@H]1C[C@@H]1c1nc2ccccc2[nH]1)c1nc(C2CC2)no1 [Example 72, (1S,2S)-2-(1H-benzo[d]imidazol-2-yl)-N—((R)-1-(3-cyclopropyl-1,2,4-oxadiazol-5-yl)ethyl)cyclopropane-1-carboxamide]",1000 to 10000
4,"C[C@@H](NC(=O)[C@H]1C[C@@H]1c1nc2ccccc2[nH]1)c1ccc(C(=O)N2CC(F)(F)C2)s1 [Example 83, (1S,2S)-2-(1H-benzo[d]imidazol-2-yl)-N—((R)-1-(5-(3,3-difluoroazetidine-1-carbonyl)thiophen-2-yl)ethyl)cyclopropane-1-carboxamide]",100 to 1000
5,"C[C@@H](NC(=O)[C@H]1C[C@@H]1c1nc2ccccc2[nH]1)c1ccc(C(=O)N(C)C)s1 [Example 84, 5-((R)-1-((1S,2S)-2-(1H-benzo[d]imidazol-2-yl)cyclopropane-1-carboxamido)ethyl)-N,N-dimethylthiophene-2-carboxamide]",1000 to 10000
6,"C[C@@H](NC(=O)[C@H]1C[C@@H]1c1nc2ccccc2[nH]1)c1ccc2ccn(C)c2c1 [Example 86, (1S,2S)-2-(1H-benzo[d]imidazol-2-yl)-N—((R)-1-(1-methyl-1H-indol-6-yl)ethyl)cyclopropane-1-carboxamide]",1000 to 10000

# Next, values leading:
row,IC50 [nM],Compound
1,≤ 100,"CC(C(=O)NC12CC3CC(CC(C3)C1)C2)N1CC[C@@H](C(=O)N[C@H](C)c2cnc(OCC(F)(F)F)s2)C1 (stereo partly drawn) [Example 47, (3R)-1-(1-((adamantan-1-yl)amino)-1-oxopropan-2-yl)-N—((R)-1-(2-(2,2,2-trifluoroethoxy)thiazol-5-yl)ethyl)pyrrolidine-3-carboxamide]"
2,100 to 1000,"C[C@@H](NC(=O)[C@H]1C[C@@H]1c1nc2ccccc2[nH]1)c1ccc2c(c1)OCO2 [Example 55, (1S,2S)—N—((R)-1-(benzo[d][1,3]dioxol-5-yl)ethyl)-2-(1H-benzo[d]imidazol-2-yl)cyclopropane-1-carboxamide]"
3,100 to 1000,"O=C(N[C@@H](c1ccc(C(F)(F)F)s1)C1CC1)[C@H]1C[C@@H]1c1nc2ccccc2[nH]1 [Example 69, (1S,2S)-2-(1H-benzo[d]imidazol-2-yl)-N—((R)-cyclopropyl(5-(trifluoromethyl)thiophen-2-yl)methyl)cyclopropane-1-carboxamide]"
4,100 to 1000,"C[C@@H](NC(=O)[C@H]1C[C@@H]1c1nc2ccccc2[nH]1)c1ccc(C2CC2)o1 [Example 74, (1S,2S)-2-(1H-benzo[d]imidazol-2-yl)-N—((R)-1-(5-cyclopropylfuran-2-yl)ethyl)cyclopropane-1-carboxamide]"
5,100 to 1000,"COc1ccc2oc([C@@H](C)NC(=O)[C@H]3C[C@@H]3c3nc4ccccc4[nH]3)cc2c1 [Example 79, (1S,2S)-2-(1H-benzo[d]imidazol-2-yl)-N—((R)-1-(5-methoxybenzofuran-2-yl)ethyl)cyclopropane-1-carboxamide]"
6,1000 to 10000,"CC(NC(=O)[C@H]1C[C@@H]1c1nc2ccccc2[nH]1)c1cc2ncccc2o1 (stereo partly drawn) [Example 80, (1S,2S)-2-(1H-benzo[d]imidazol-2-yl)-N-(1-(furo[3,2-b]pyridin-2-yl)ethyl)cyclopropane-1-carboxamide]"
7,≤ 100,"C[C@@H](NC(=O)[C@H]1C[C@@H]1c1nc2cc(Cl)ccc2[nH]1)c1cc2cc(F)ccc2o1 [Example 81, (1S,2S)-2-(5-chloro-1H-benzo[d]imidazol-2-yl)-N—((R)-1-(5-fluorobenzofuran-2-yl)ethyl)cyclopropane-1-carboxamide]"
